The source made the active and inactive calls.
What was measured:
[1] = biological target: DNA dC->dU-editing enzyme APOBEC-3G (Homo sapiens, UniProt Q9HC16); experiment: Dose Response confirmation of small molecule APOBEC3G DNA Deaminase Inhibitors via a fluorescence-based single-stranded DNA deaminase assay. [Related pubchem assays (depositor defined):AID493012, AID493028]; format: functional
[2] = biological target: DNA dC->dU-editing enzyme APOBEC-3A (Homo sapiens, UniProt P31941); experiment: APOBEC3A DNA deaminase inhibitors, dose response, biochemical (AID 504722); format: functional
[3] = NIH-3T3 fibroblast cytotoxicity, dose response, cytotoxicity control, cell-based, fluorescence, Alamar Blue, secondary assay (AID 2327); format: functional;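 also: NIH-3T3 mouse fibroblasts cultured with fluconazole at 8 µg/mL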
[4] = biological target: T1, Serine/threonine-protein phosphatase (Candida dubliniensis (strain CD36 / CBS 7987 / NCPF 3949 / NRRLY-17841) (Yeast), UniProt B9W6M3); experiment: calcineurin pathway inhibitors in yeast reporter, dose response, S. cerevisiae, CDRE-lacZ, luminescence, secondary (AID 2388); format: functional, cell-based;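 also: yeast reporter cells carrying a calcineurin-responsive lacZ construct stimulated with calcium chloride; luminescent beta-galactosidase reporter signal in whole cells rather than isolated phosphatase activity; potency for inhibition where a drop in reporter signal means calcineurin blockade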
T1 sequence (B9W6M3 whole entry): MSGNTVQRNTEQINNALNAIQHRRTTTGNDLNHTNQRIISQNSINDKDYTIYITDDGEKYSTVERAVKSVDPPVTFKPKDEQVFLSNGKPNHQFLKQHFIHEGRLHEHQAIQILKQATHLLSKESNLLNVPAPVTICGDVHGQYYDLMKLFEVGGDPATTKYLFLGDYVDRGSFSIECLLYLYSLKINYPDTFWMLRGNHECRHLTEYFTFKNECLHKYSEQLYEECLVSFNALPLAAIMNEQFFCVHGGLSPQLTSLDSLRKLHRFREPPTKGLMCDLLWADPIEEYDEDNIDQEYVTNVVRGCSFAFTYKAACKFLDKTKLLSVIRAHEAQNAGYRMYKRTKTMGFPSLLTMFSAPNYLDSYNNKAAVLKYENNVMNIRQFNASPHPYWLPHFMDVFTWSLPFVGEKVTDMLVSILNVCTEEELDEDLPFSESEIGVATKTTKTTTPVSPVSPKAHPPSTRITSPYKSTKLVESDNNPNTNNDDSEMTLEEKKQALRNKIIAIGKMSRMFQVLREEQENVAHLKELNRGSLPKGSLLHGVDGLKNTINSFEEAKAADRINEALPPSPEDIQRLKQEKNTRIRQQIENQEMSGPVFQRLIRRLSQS

[5] = biological target: ATP-dependent molecular chaperone HSP82 (Candida albicans (strain WO-1) (Yeast), UniProt C4YTQ8); experiment: loss of DOC-induced GRE-beta-galactosidase reporter signal, dose response, Hsp90 inhibitor project, S. cerevisiae, luminescence (AID 2400); format: functional, cell-based;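 also: beta-galactosidase luminescence from glucocorticoid response element reporter as proxy for Hsp90 function; inhibitor potency where signal loss means Hsp90 inhibition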
[6] = C. albicans growth with fluconazole, confirmation, fluorescence, retest (AID 2467); format: functional, cell-based
Cytochrome P450 2C19 = Cytochrome P450 2C19 (Homo sapiens, UniProt P33261); experiment: Cytochrome panel assay with activity outcomes. Panel member name: p450-cyp2c19 Compounds with AC50 equal or less than 10 uM are considered active; format: functional
[7] = biological target: Alkaline phosphatase, placental type (Homo sapiens, UniProt P05187); experiment: PLAP enzyme inhibitors, confirmation, biochemical, luminescence (AID 1512); format: functional
[8] = biological target: Glyceraldehyde-3-phosphate dehydrogenase (Homo sapiens, UniProt P04406)
[9] = biological target: T2, Alkaline phosphatase, tissue-nonspecific isozyme (Homo sapiens, UniProt P05186); experiment: human TNAP enzyme inhibitors, SAR follow-up, biochemical, luminescent, dose response (AID 1056)
T2 sequence (P05186 whole entry): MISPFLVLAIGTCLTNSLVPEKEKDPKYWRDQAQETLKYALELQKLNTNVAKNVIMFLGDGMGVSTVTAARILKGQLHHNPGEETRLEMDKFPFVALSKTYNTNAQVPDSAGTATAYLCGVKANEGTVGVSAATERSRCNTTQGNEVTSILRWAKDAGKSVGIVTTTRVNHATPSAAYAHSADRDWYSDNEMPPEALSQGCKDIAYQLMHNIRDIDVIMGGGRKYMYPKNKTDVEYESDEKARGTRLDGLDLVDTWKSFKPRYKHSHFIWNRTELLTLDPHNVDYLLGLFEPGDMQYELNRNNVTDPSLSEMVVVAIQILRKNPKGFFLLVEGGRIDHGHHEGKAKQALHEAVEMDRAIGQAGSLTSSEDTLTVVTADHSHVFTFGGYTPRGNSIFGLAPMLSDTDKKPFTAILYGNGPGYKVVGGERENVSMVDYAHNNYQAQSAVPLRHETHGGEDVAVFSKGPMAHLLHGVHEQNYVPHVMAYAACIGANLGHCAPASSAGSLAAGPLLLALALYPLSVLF

[10] = biological target: G-protein coupled receptor 55 (Homo sapiens, UniProt Q9Y2T6); experiment: GPR55 antagonists blocking LPI-driven arrestin recruitment, primary screen, imaging, U2OS, beta-arrestin-GFP, LPI agonist (AID 2013); format: functional;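 also: antagonist potency measured as reduced agonist-driven arrestin aggregation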
Vero = Vero cell cytotoxicity, cytotoxicity control for flavivirus capping enzyme inhibitors (AID 588742); format: functional; conditions: Chlorocebus sabaeus
[11] = biological target: T3, Ubiquitin-conjugating enzyme E2 N (Homo sapiens, UniProt P61088); format: functional
T3 sequence (P61088 whole entry): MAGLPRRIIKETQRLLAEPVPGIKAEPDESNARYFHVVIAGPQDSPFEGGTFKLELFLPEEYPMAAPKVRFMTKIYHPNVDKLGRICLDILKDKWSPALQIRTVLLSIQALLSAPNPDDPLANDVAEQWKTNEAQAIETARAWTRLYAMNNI

[12] = biological target: T3, Ubiquitin-conjugating enzyme E2 N; format: functional; remark: listed apart in the source
Bcl-2-related protein A1 = biological target: T4, Bcl-2-related protein A1 (Mus musculus, UniProt Q07440); format: functional;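 also: confirmatory dose–response counterscreen on Bfl-1, used to check hits from a UBC13 polyubiquitin inhibitor campaign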
T4 sequence (Q07440 whole entry): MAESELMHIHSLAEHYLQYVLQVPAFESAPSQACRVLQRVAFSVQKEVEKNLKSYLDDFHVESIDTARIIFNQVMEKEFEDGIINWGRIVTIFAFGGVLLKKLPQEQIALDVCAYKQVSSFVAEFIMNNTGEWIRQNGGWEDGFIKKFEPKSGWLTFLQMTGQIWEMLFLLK

ORF 73 = biological target: T5, ORF 73 (Human herpesvirus 8, UniProt O40947); experiment: inhibitors of C-LANA binding to LBS DNA, dose response, biochemical, fluorescence polarization, cherry-picked samples (AID 504725); set-up: species or system Human gammaherpesvirus 8;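 also: fluorescence polarization of a labeled DNA duplex reporting LANA DNA binding; potency is for inhibitors that block LANA binding to the DNA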
T5 sequence (O40947 whole entry): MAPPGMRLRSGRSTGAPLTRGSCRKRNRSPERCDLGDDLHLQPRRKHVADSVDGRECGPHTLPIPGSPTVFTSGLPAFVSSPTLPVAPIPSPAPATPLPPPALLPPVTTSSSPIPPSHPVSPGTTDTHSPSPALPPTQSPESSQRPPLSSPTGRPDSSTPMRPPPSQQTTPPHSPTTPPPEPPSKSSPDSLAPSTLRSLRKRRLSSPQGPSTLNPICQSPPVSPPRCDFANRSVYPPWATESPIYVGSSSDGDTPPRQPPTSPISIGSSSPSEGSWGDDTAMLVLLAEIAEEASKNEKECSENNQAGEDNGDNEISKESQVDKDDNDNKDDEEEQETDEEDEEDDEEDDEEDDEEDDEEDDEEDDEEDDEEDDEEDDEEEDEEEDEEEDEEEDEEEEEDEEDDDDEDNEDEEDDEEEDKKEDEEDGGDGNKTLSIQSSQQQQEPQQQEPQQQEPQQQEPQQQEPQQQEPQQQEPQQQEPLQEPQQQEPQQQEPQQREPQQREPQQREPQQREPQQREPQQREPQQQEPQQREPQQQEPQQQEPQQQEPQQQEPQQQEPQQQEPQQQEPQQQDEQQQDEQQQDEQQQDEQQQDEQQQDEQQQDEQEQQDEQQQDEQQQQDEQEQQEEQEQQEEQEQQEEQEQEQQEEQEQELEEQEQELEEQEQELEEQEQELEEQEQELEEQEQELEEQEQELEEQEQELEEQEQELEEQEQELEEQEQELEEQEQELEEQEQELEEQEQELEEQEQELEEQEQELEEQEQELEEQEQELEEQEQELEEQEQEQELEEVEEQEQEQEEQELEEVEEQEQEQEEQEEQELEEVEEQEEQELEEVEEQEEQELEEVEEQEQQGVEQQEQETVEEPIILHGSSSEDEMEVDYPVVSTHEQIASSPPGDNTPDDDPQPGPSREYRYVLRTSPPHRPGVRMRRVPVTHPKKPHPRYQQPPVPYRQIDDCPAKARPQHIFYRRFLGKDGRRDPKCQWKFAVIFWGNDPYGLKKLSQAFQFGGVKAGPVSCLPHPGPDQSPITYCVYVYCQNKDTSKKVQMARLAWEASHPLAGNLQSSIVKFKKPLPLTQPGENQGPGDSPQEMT

[13] = ARNT/TACC3 interaction disruptors, potency, confirmation, biochemical, AlphaScreen, cherry-picked samples (AID 651703); format: functional, Homo sapiens;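 also: His-tagged ARNT PAS-B domain paired with GST-TACC3 E629A dimer coactivator fragment; potency of inhibitors that break up the complex and lower AlphaScreen signal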
[14] = inhibitors of intracellular T. cruzi replication, confirmation, NIH3T3 host cells, beta-gal luminescence (AID 2044); format: functional, cell-based;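 also: intracellular parasites grown in NIH/3T3 mouse fibroblasts as host cells; luminescent beta-galactosidase reporter signal from transgenic T. cruzi replicating inside host cells; inhibitors lower the luminescence signal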
INS1 = experiment: beta cell apoptosis inhibitors, cytokine rescue, dose response, luminescence, retest (AID 449756); format: functional, cell-based; conditions: Rattus norvegicus;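 also: cell death triggered by IL-1 beta plus TNF-alpha plus IFN-gamma mixture; protective hits raise ATP signal compared with cytokine alone wells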
[15] = cytotoxicity toward NIH3T3 fibroblasts, dose response, counter-screen, cell-based, ATP luminescence, mouse fibroblasts (AID 2010); format: functional;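 also: cells exposed to compound for about 90 hours before reading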
[16] = biological target: Heat shock protein HSP 90-alpha (Homo sapiens, UniProt P07900); format: functional, organism-based
[17] = cytotoxicity in MIN6 insulinoma cells, dose response, cytotoxicity control, cell-based, mouse insulinoma (AID 2122); format: functional;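 also: confirmatory high-throughput counterscreen run to flag cytotoxic compounds; mouse MIN-6 beta cells carrying an insulin promoter eGFP reporter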
[18] = insulin promoter down-regulators in MIN6 cells, imaging, high-content screening, mouse beta cells (AID 1628); format: functional
[19] = biological target: T6, Microphthalmia-associated transcription factor (Homo sapiens, UniProt O75030); experiment: TRPM1 promoter luciferase signal decrease, dose response, MITF inhibitor project, cell-based, SK-MEL-5, cherry-picked, set 3 (AID 493073); format: functional
T6 sequence (O75030 whole entry): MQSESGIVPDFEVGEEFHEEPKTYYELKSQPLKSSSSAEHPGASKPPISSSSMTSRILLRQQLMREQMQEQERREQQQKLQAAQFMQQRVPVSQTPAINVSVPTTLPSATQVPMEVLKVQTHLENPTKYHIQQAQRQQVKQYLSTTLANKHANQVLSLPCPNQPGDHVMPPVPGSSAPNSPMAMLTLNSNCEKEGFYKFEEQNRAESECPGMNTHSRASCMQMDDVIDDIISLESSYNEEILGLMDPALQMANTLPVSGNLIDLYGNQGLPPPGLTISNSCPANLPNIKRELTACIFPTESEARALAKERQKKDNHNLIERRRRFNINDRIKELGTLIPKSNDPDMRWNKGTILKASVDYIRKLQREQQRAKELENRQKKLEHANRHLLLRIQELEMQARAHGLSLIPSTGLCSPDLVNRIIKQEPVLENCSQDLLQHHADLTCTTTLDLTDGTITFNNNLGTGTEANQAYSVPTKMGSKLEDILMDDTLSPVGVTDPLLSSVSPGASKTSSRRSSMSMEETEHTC

Sequence of DNA dC->dU-editing enzyme APOBEC-3G (Q9HC16 whole entry): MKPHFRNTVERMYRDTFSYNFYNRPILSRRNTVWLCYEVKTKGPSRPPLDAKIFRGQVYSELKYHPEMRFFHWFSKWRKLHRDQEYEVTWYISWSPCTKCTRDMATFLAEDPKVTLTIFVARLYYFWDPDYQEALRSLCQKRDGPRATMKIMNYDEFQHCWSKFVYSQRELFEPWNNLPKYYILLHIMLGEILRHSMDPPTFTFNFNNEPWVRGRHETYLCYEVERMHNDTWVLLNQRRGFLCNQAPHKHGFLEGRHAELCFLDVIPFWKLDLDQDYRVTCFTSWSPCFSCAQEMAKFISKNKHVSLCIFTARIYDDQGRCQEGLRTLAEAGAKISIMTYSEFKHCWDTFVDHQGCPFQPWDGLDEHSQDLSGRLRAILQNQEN
Sequence of Alkaline phosphatase, placental type (P05187 whole entry): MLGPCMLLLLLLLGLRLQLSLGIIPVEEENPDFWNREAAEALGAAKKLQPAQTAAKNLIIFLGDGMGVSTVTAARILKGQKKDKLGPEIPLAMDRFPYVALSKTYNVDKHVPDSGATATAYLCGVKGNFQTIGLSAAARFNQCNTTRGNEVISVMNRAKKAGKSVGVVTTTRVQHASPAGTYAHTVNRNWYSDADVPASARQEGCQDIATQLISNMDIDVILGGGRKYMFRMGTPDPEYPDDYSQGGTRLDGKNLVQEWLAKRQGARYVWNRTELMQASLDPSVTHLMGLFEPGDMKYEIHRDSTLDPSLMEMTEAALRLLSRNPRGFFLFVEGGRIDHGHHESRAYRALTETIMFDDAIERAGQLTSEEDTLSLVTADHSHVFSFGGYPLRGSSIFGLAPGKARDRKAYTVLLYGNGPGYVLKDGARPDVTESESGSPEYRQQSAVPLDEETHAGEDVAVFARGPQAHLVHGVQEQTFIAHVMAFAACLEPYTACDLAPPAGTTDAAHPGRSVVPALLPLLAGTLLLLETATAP
Sequence of DNA dC->dU-editing enzyme APOBEC-3A (P31941 whole entry): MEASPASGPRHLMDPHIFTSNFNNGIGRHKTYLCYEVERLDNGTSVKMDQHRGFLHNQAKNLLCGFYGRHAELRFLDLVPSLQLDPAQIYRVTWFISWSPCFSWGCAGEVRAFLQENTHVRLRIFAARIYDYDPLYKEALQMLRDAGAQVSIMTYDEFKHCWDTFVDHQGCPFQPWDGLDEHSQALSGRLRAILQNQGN
Sequence of ATP-dependent molecular chaperone HSP82 (C4YTQ8 whole entry): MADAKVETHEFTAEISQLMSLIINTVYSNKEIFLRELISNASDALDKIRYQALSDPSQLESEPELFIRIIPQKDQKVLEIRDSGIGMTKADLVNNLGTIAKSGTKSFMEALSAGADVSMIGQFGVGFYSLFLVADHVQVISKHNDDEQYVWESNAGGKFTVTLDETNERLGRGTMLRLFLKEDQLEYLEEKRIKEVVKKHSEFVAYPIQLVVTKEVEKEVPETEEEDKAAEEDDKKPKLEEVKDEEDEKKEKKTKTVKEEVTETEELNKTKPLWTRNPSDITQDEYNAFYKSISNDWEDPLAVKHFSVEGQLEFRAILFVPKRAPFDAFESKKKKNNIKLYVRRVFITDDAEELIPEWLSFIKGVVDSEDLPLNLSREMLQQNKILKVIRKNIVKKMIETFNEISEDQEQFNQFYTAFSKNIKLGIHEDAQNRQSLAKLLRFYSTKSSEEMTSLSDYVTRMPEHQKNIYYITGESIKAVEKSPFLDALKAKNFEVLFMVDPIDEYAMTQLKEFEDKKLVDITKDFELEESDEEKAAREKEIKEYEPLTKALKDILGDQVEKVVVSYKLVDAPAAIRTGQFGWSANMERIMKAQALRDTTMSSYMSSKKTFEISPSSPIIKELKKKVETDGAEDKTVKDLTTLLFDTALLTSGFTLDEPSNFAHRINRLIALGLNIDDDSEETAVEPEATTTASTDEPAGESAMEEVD
Sequence of G-protein coupled receptor 55 (Q9Y2T6 whole entry): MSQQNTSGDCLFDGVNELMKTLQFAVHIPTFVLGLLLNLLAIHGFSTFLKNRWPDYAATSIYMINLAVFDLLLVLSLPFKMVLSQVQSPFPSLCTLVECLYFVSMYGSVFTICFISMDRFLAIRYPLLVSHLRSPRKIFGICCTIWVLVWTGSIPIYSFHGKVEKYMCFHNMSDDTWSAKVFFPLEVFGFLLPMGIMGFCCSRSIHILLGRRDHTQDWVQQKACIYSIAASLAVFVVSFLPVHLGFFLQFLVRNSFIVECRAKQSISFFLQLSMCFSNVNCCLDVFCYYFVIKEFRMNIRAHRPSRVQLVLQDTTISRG
Sequence of Cytochrome P450 2C19 (P33261 whole entry): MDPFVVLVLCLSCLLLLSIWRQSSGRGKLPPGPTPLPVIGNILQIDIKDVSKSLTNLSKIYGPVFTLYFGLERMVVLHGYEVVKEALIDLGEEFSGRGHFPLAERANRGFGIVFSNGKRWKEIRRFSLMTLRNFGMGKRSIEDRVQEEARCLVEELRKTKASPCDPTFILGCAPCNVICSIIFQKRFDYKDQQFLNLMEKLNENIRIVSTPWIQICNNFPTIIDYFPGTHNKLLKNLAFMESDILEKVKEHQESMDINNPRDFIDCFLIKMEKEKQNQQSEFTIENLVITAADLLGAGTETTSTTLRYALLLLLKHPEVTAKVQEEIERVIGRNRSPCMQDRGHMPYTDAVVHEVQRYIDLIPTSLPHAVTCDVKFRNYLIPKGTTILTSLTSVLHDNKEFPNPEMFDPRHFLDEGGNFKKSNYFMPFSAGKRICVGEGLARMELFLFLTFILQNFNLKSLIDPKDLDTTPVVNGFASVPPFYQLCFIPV
Sequence of Glyceraldehyde-3-phosphate dehydrogenase (P04406 whole entry): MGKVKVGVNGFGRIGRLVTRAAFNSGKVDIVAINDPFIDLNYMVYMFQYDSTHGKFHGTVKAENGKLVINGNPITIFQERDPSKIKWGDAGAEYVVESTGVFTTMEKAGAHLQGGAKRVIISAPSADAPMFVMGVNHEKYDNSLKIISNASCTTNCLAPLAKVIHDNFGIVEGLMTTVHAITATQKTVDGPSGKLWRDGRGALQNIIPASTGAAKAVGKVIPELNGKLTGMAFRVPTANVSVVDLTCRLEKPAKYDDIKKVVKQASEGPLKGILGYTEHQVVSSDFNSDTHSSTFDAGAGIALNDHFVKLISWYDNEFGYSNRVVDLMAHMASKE

CCOC(=O)c1cc(C)nc(S)c1C#N
IC50 [1]: 4.65 µM (active)
IC50 [2]: > 100 µM (inactive)

Cc1[nH]c2nc(S)nc-2cc1Br
IC50 [1]: 1.98 µM (active)
IC50 [2]: > 100 µM (inactive)

Cc1nnc(NC(=O)CSc2ncnc3c2cnn3-c2ccccc2C)s1
EC50 [3]: > 150 µM (inactive)
EC50 [4]: > 180 µM (inactive)
EC50 [5]: > 150 µM (inactive)
EC50 [6]: 0.573 µM (active)
AC50 (Cytochrome P450 2C19): inconclusive

Cc1ccc(-c2nc(N)nn2-c2ccccc2)cc1
IC50 [7]: > 100 µM (inactive)
IC50 [8]: > 100 µM (not active)
IC50 [9]: > 100 µM (inactive)

Cc1c(CCOC(=O)c2ccc(N3CCOCC3)c([N+](=O)[O-])c2)sc[n+]1CC#N
IC50 [10]: 5.68 µM (active)

Cc1nn(-c2ccccn2)c2nc(-c3cccs3)cc(C(=O)NCc3ccco3)c12
CC50 (Vero): > 40 µM (active)

O=C(COC(=O)c1cc(-c2ccc(Cl)s2)nc2ccccc12)NCc1ccco1
CC50 (Vero): > 40 µM (active)

CC1(C)Cc2c(sc(NC(=O)C(=O)N3CCCC3)c2C(N)=O)CO1
IC50 [11]: 1.47 µM (active)
IC50 [12]: 9.62 µM (active)
IC50 (Bcl-2-related protein A1): > 20 µM (inactive)

CC(C)Cn1c(-c2ccccc2F)n[nH]c1=S
IC50 [1]: 5.39 µM (active)
IC50 [2]: > 100 µM (inactive)

Cc1noc(C)c1CN(C(=S)NC1CC2CCC1C2)c1ccccc1 (stereo unspecified)
IC50 [10]: 3.74 µM (active)

O=C(CSc1nnc(-c2ccncc2)[nH]1)c1ccc(O)c(O)c1
IC50 [7]: 6.95 µM (active)
IC50 [9]: 6.53 µM (active)

CC1(C)Oc2ccc([N+](=O)[O-])cc2O1
IC50 [7]: > 100 µM (inactive)
IC50 [9]: > 100 µM (inactive)

Cn1cncc1C#Cc1c(-c2ccc(S(C)(=O)=O)cc2)sc2ccccc12
IC50 [11]: 3.37 µM (active)
IC50 [12]: 8.84 µM (active)
IC50 (Bcl-2-related protein A1): > 20 µM (inactive)

C/C(=N/NC(=O)c1ccncc1)c1cc2ccc(O)cc2oc1=O
AC50 (ORF 73): 0.544 µM (active)
AC50 [13]: 116 µM (active)

O=C(N/N=C/c1ccc(O)c2ncccc12)c1cccc(Br)c1
EC50 [3]: > 160 µM (inactive)
EC50 [14]: 1.66 µM (active)
AC50 (INS1): 1.22 µM (active)
EC50 [15]: 5.44 µM (active)
EC50 [4]: > 180 µM (inactive)
EC50 [5]: 22.2 µM (active)
EC50 [6]: 0.729 µM (active)
AC50 [16]: 3.83 µM (active)
IC50 [17]: 1.68 µM (active)
IC50 [18]: 1.67 µM (active)
AC50 [19]: 7.28 µM (active)

From ChEMBL document CHEMBL1201862, “PubChem BioAssay data set” (2004)
